In brackets after ≈: the same amount, converted by molar mass. Several values for one entry are separate records, joined by “and”; a condition that tells them apart may be missing. Equal entries are not always repeated. Entries after “also recorded” stand apart in the source; their conditions may differ. Where two headings read alike, the source gives them in different places.
What was measured:
CEM cells [1] = assay: Cytotoxicity, ID50 and ID90 by trypan blue staining; assay type: cell-based; settings: for IC90 / IC50: Homo sapiens, CCRF-CEM; for IC90: 48 h, read-out: ID90 (the source's name); for IC50: NT = Non-toxic to CEM cells
Procedure: CEM cells, a human T-cell lymphoblastoid leukemia cell line (American Type Culture Collection, Rockville, Md.), were cultured in suspension (Iscove's Dulbecco's Medium) supplemented with 10% heat inactivated fetal bovine serum (FBS), penicillin (250 μ/ml) and streptomycin (250 μl/ml). Cells were incubated at 37° C. in 5% C02 and only those cells in exponential growth were used.
CEM cells were seeded into 96-well microplates (Falcon, Oxnard, Calif.) at 10^5 cell per well, then treated with 0-10 μg/ml of the candidate compounds for 48 h at 37° C. yielding a total volume of 250 μ/well. Cell viability was assessed by trypan blue staining. ID50 and ID90 were defined as the concentration killing 50% or 90% of the cells in comparison with untreated controls, and calculated by non-linear regression analysis.
Cells in suspension culture were seeded into 96-well microplates (Falcon, Oxnard, Calif.) at 10^5 cell per well, followed, by treatment with 0-10 μg/ml of the candidate compounds for 48 hr at 37° C. with total volume of 250 μl per well. Cell viability was assessed by trypan blue exclusion.
The ID50 and ID90 was determined in duplicate in every set of experiments, and each experiment was repeated 3 times under identical conditions. ID50 and ID90 were defined as drug concentrations that induced 50% or 90% cellular death in comparison with untreated controls and calculated by non-linear regression analysis. […]

CEM cells [2] = assay: Cell cycle analysis by flow cytometry; assay type: cell-based, human; settings: for shift of the cell population from G0/G1 (2N) to G2/M (4N), DNA profile: 8 h treatment, compound 6 2.5 μg/ml, compound 8 0.025 μg/ml, compound 9 0.005 μg/ml; for Apoptosis (%) / G0/G1 (%) / G2/M (%) / S (%) / Mitotic Arrest: 0.025 μg/ml; for Mitotic Arrest: cell cycle analyses
CEM cells [3] = assay: Morphology by microscopy (mitotic arrest, apoptosis, necrosis); assay type: cell-based, human; design: key to Block of Mitosis: +Block of mitosis was observed; −no mitotic blocking; settings: for mitotic arrest (blocking) effect, morphological appearance / Mitotic arrest, % / apoptosis by morphology: CEM cells; for mitotic arrest (blocking) effect, morphological appearance: 24 h, compound 8 at 0.025 μg/ml, compound 9 at 0.005 μg/ml; for morphological effect on leukemic cells / Activities of inducing Apoptosis / Activities of inducing Mitotic block / Activities of inducing Necrosis: CEM leukemic cells; for Activities of inducing Apoptosis / Activities of inducing Mitotic block / Activities of inducing Necrosis: % of affected cells; for Mitotic arrest, %: % of mitotic cells after 24 h incubation, optical microscopy; for apoptosis by morphology: treatment prolonged to 48 h
Procedure: Slides for examination of mitosis were prepared on a cytospin centrifuge (Shandon Southern Products Ltd, England ) at 700 g for 5 min. Slides were air dried, fixed in methanol and stained with Giemsa (Harleco, N.J.) at room temperature for 15 min. Cells in mitotic arrest were recognized by the disappearance of nuclear membrane and by the appearance of chromosomal scattering throughout the cytoplasm (reference 1). The % of mitotic cells were counted after 24 h incubation using optical microscopy. Apoptotic cells were identified using common criteria, i.e., shrinkage in cell size, chromatin condensation and fragmentation of the nucleus into discrete masses (reference 2).
Cell samples on slides were prepared by a Cytospin centrifuge (Shandon Southern Products Ltd, England) at 700 g for 5 min. The slides were air dried, fixed in methanol and stained with Giemsa (Harleco, N.J.) at room temperature for 15 min. Alterations of nuclei, membranes and morphological features were observed by light microscopy. Cells in mitotic phase were recognized by the appearance of their chromosomes dispersed in the cytoplasm, and by the disappearance of nuclear membrane. Apoptotic-cells were identified using previously defined criteria, i.e., shrinkage in cell size, chromatin condensation and fragmentation of the nucleus into discrete masses (references 2 & 3). Necrotic cells were differentiated from apoptotic cells by observing swollen cytoplasm and the disappearance of cell membrane prior to the destruction of the nucleus.

CEM cells [4] = assay: DNA fragmentation by electrophoresis (apoptosis); assay type: cell-based, human; settings: for apoptosis, DNA fragmentation on gel electrophoresis: 48 hours, compound 8 0.025 μg/ml, compound 9 0.005 μg/ml, fluorine compound 5.0 μg/ml, chlorine compound 0.75 μg/ml; for Apoptosis: 0.025 μg/ml, DNA electrophoresis
Procedure: DNA fragmentation was determined by a method reported previously (reference 3). Briefly, cells were treated in 1 ml lysis buffer (0.01M Tris. HCL pH 8.0, 0.01M NaCl, 0.01M EDTA pH 8.0 and 5% sodium dodecyl sulfate) containing 1 μg/ml protease K for 1 h at 50° C. The resulting products were extracted with phenol and chloroform:isoamylalcohol (24:1, v/v), and precipitated with ethanol followed by centrifugation at 7800 g (Sorvall RC-5B Du Pont, Newtown, Conn.). The ethanol was removed and the dry pellets of nucleic acid were resuspended in 10 mM Tris-HCL/1 mM EDTA solution. When DNA content was determined spectrophotometrically all samples had A260/A280 ratio≧2. The DNA samples were then treated with RNase (Sigma, St. Louis, Mo.) at a final concentration of 0.1 μg/μl for 20 min at 37° C. before gel loading. Approximately 4 μg size DNA aliquots were loaded onto horizontal agarose gel (1.5%) prepared with 1% ethidium bromide. Electrophoresis was performed at 75 volts for 2 h and the DNA patterns were visualized with UV light.
[…] After incubation, cells were washed twice in PBS. Cell pellets were resuspended in drug-free medium and incubated for 48 hr at 37° C. Cell viability, morphology, mitotic spindles, cell cycle distribution and apoptosis were determined 24 hr and 48 hr post pulse exposure.
Soluble DNA from cells was extracted by the method reported previously (14). Briefly, after washing with PBS, cells were treated in 1 ml lysis buffer (0.01 M Tris.HCL pH 8.0, 0.01 M NaCl, 0.01M EDTA pH 8.0 and 5% sodium dodecyl sulfate) containing 1 μg/ml proteinase K for 1 hr at 50° C. The resulting products were extracted with phenol and chloroform:isoamylalcohol (24:1, v/v), and precipitated with ethanol followed by centrifugation at 7800 g (Sorvall RC-5B Du Pont, Newtown, Conn.). The ethanol was removed and the dry pellet of nucleic acid was resuspended in 10 mM Tris-HCL/1 mM EDTA solution. DNA content was determined spectrophotometrically by measuring absorption at 260 nm (A260). All samples, had A260/A280≧2. The DNA samples were then treated with RNase (Sigma, St. Louis, Mo.) at a final concentration of 0.1 μg/l for 20 min at 37° C. before gel loading. The DNA sample (4 μg) was analyzed in 1.5% horizontal agarose gel prepared with 1% ethidium bromide. Electrophoresis was performed at 75 volts for 2 hours and the DNA migration was visualized under UV light.

[5] = CEM cells, concentration killing 90% of the cells
[6] = Continuous Exposure (24 hr; 48 hr in footnote)

With `NC(=O)NC(=O)c1cccc(NC(=O)CCl)c1` [Compound 7, 3-Chloroacetoamido, benzoylurea] the “fold increase of ID50 relative to 3-BAABU” value (CEM cells [1]; CEM leukemic cells) was 40 fold, the IC90 (CEM cells [1]; [5]) was 0.6 µg/mL and 2.3 µM and the IC50 (CEM cells [1]; CEM leukemic cells, 48 hr) was 1950 nM. The “shift of the cell population from G0/G1 (2N) to G2/M (4N), DNA profile” value (“shift of the cell population from G0/G1” below) (CEM cells [2]) was “slight increase”, the “mitotic arrest (blocking) effect, morphological appearance” value (CEM cells [3]) was “minor” and the “morphological effect on leukemic cells” value (CEM cells [3]) was “also induced mitotic arrest but with less disorganization”. For the same molecule, the “Activities of inducing Apoptosis” value (CEM cells [3]) was “++ (++: 25-50%)”, the “Activities of inducing Mitotic block” value (CEM cells [3]) was “+ (+10-25%)” and the “Activities of inducing Necrosis” value (CEM cells [3]) was “− (−:<10%)”. For the same molecule, the “apoptosis, DNA fragmentation on gel electrophoresis” value (“apoptosis, DNA fragmentation” for short) (CEM cells [4]) was “much less DNA fragmentation”.
For `NC(=O)NC(=O)c1cccc(NC(=O)CBr)c1` [Compound 8, 3-Bromoacetoamido, benzoylurea], the IC90 (CEM cells [1]; [5]) was 0.025 µg/mL and 82 nM, the IC90 (CEM cells [1]; CEM, Human T-cell Leukemia, 48 hr) was 0.02 ± 0.003 µg/mL (≈ 0.0666 µM) and the IC50 (CEM cells [1]; CEM leukemic cells, 48 hr) was 40 nM. The “ID50 of non-malignant cells relative to leukemic and lymphoma cell lines (times)” value (CEM cells [1]; non-malignant cells vs leukemia or lymphoma cell lines, listed as 3-BAABU) was 60-150 times, the “Apoptosis (%)” value (CEM cells [2]; 1 hour of treatment) was 2% and the “G0/G1 (%)” value (CEM cells [2]; 1 hour of treatment) was 48%. The “G2/M (%)” value (CEM cells [2]; 1 hour of treatment) was 21%, the “S (%)” value (CEM cells [2]; 1 hour of treatment) was 29% and the “Apoptosis (%)” value (CEM cells [2]; 2 hours of treatment) was 1%. For the same molecule, the “G0/G1 (%)” value (CEM cells [2]; 2 hours of treatment) was 35%, the “G2/M (%)” value (CEM cells [2]; 2 hours of treatment) was 22% and the “S (%)” value (CEM cells [2]; 2 hours of treatment) was 42%. For the same molecule, the “Apoptosis (%)” value (CEM cells [2]; 4 hours of treatment) was 4%, the “G0/G1 (%)” value (CEM cells [2]; 4 hours of treatment) was 28% and the “G2/M (%)” value (CEM cells [2]; 4 hours of treatment) was 29%. For the same molecule, the “S (%)” value (CEM cells [2]; 4 hours of treatment) was 39%, the “Apoptosis (%)” value (CEM cells [2]; 8 hours of treatment) was 5% and the “G0/G1 (%)” value (CEM cells [2]; 8 hours of treatment) was 16%. The “G2/M (%)” value (CEM cells [2]; 8 hours of treatment) was 44%, the “S (%)” value (CEM cells [2]; 8 hours of treatment) was 35% and the “Apoptosis (%)” value (CEM cells [2]; 12 hours of treatment) was 7%. For the same molecule, the “G0/G1 (%)” value (CEM cells [2]; 12 hours of treatment) was 4%, the “G2/M (%)” value (CEM cells [2]; 12 hours of treatment) was 60% and the “S (%)” value (CEM cells [2]; 12 hours of treatment) was 29%. For the same molecule, the “Apoptosis (%)” value (CEM cells [2]; 24 hours of treatment) was 18%, the “G0/G1 (%)” value (CEM cells [2]; 24 hours of treatment) was 2% and the “G2/M (%)” value (CEM cells [2]; 24 hours of treatment) was 70%. For the same molecule, the “S (%)” value (CEM cells [2]; 24 hours of treatment) was 10%, the “Apoptosis (%)” value (CEM cells [2]; 48 hours of treatment) was 33% and the “G0/G1 (%)” value (CEM cells [2]; 48 hours of treatment) was 1%. For the same molecule, the “G2/M (%)” value (CEM cells [2]; 48 hours of treatment) was 61%, the “S (%)” value (CEM cells [2]; 48 hours of treatment) was 5% and the “shift of the cell population from G0/G1” value (CEM cells [2]) was “major shift”. For the same molecule, the “Mitotic Arrest” value (CEM cells [2]; [6]) was “++++ (++++: >75% cells were affected)”, the “Mitotic Arrest” value (CEM cells [2]; Pulse Exposure (1 hr)) was “++++ (++++: >75% cells were affected)” and the “mitotic arrest (blocking) effect, morphological appearance” value (CEM cells [3]) was “main features of mitotic arrest”. For the same molecule, the “Mitotic arrest, %” value (CEM cells [3]) was over 85%, the apoptosis by morphology (CEM cells [3]) was “complete apoptosis” and the “morphological effect on leukemic cells” value (CEM cells [3]) was “induced mitotic arrest”. For the same molecule, the “Activities of inducing Apoptosis” value (CEM cells [3]) was “++++ (++++: >75%)”, the “Activities of inducing Mitotic block” value (CEM cells [3]) was “++++ (++++: >75%)” and the “Activities of inducing Necrosis” value (CEM cells [3]) was “− (−:<10%)”. For the same molecule, the “Block of Mitosis” value (CEM cells [3]; CEM, Human T-cell Leukemia, 37° C. for 48 hr) was “+”, the “apoptosis, DNA fragmentation” value (CEM cells [4]) was 180-200 bp multiple-unit ladder pattern and the Apoptosis (CEM cells [4]; [6]) was “++++ (++++: >75% cells were affected)”. The Apoptosis (CEM cells [4]; Pulse Exposure (1 hr)) was “++++ (++++: >75% cells were affected)”.
For `NC(=O)NC(=O)c1cccc(NC(=O)CI)c1` [Compound 9, 3-Iodoacetoamido, benzoylurea], the “fold more toxic than the bromine compound 8” value (CEM cells [1]; CEM cells, cytotoxicity) was 5 fold, the “fold more toxic than the chlorine compound 7” value (CEM cells [1]; CEM cells, cytotoxicity) was 160 fold and the IC90 (CEM cells [1]; [5]) was 0.005 µg/mL and 14 nM. For the same molecule, the “shift of the cell population from G0/G1” value (CEM cells [2]) was “most significant transformation; also recorded: major shift”, the “mitotic arrest (blocking) effect, morphological appearance” value (CEM cells [3]) was “main features of mitotic arrest” and the “Mitotic arrest, %” value (CEM cells [3]) was over 85%. For the same molecule, the apoptosis by morphology (CEM cells [3]) was “complete apoptosis” and the “apoptosis, DNA fragmentation” value (CEM cells [4]) was 180-200 bp multiple-unit ladder pattern.

— patent US6590123B2, “Aminobenzoic acid derivatives having anti-tumorigenic activity, methods of making and using the same” (Mount Sinai School of Medicine of New York University, priority 1998, dated 2003)
